Consider 10 compounds from PubChem BioAssay (NCI).

Each structure is given as a SMILES string. Several values for one entry are separate records, joined by “and”; a condition that tells them apart may be missing. Equal entries are not always repeated.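 Where inhibition never reached the appropriate level, the endpoint shown equals the highest concentration tested. Otherwise, values were interpolated linearly from a five-concentration, 48-hour dose response in 96-well plates. GI50 = concentration required for 50% inhibition of growth. The concentration for full growth arrest is given as TGI.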 Some results are limits rather than exact numbers.

One may read the TGI as the concentration giving total growth inhibition. For orientation: GI50 means the concentration at which growth is held to half of that of the control.

Holding throughout (assay): DTP human tumour cell line panel, 48 h
The subject of test [1] is CAKI-1 renal.
In test [2] the test system is COLO 205 colon.
Test [3] deals with HL-60(TB) leukemia.
For test [4], the system named is HOP-92 NSCLC.
For test [5], the system named is LOX IMVI melanoma.
In test [6] the test system is OVCAR-8 ovarian.
Test [7] concerns SF-295 CNS.
Test [8] has as its system SK-OV-3 ovarian.
Test [9] deals with SNB-75 CNS.
Test [10] has as its system SR leukemia.

In the case of `Cc1c(N=Nc2ccc([N+](=O)[O-])cc2)nc2scc(-c3ccccc3)n12`, the TGI in test [1] was > 100 µM; in test [2], > 100 µM; in test [3], 49.2 µM; in [4], > 100 µM; in [5] it was > 100 µM; in [6] it was > 100 µM. The TGI in test [7] is > 100 µM; in test [8], > 100 µM; in test [9], > 100 µM; in [10], 56.4 µM.

With `CC1OC(n2ncc(=O)[nH]c2=O)C=CC1=O` (configuration not stated), the TGI in [1] is > 100 µM; in [2] it was > 100 µM; in test [3], 57.5 µM and 52.7 µM; in test [4], > 100 µM and 71.9 µM; in [5] it was > 100 µM; in test [6], > 100 µM. Also, the TGI in [7] is > 100 µM; in [8], > 100 µM; in [9], > 100 µM; in [10], > 100 µM and 92.9 µM. The GI50 is > 100 µM and 36.9 µM in test [2]; 71.1 µM and 32.8 µM in test [4]; > 100 µM and 29.3 µM in [8].

Regarding `CC1=C([Se]CC(OC(=O)CC[Se]c2ccccc2)C(=O)NCCCCCC(=O)OCc2ccccc2)C(=O)c2ccccc2C1=O` (configuration not stated), the GI50 is 2.57 µM in test [1]; 2.15 µM in test [2]; 2.75 µM in test [3]; 2.46 µM in test [4]; 1.81 µM in test [5]; 2.44 µM in test [6]. Also, the GI50 was 1.97 µM in test [7], 3.95 µM in test [8], 1.71 µM in test [9] and 3.38 µM in test [10]. In addition, the TGI in [1] is 7.72 µM; in test [2] it was 3.93 µM; in test [3], 8.25 µM; in test [4], 5.91 µM; in test [5] it was 4.28 µM; in test [6] it was 7.16 µM. Besides, the TGI turned out to be 8.46 µM in test [7], 7.27 µM in [8], 6.23 µM in [9] and 17.2 µM in test [10].

On to `COc1cc2oc(=O)ccc2cc1C1OC(=O)C2OC21C` (configuration not stated), for which the TGI in [1], in [2], in test [3], in test [4], in test [5] and in [6] was > 100 µM throughout. Further, the TGI in test [7], in [8], in test [9] and in test [10] was > 100 µM in each case.

On to `[N-]=[N+]=NC(c1cn(C2CC(O)C(CO)O2)c(=O)[nH]c1=O)C(Br)I` (configuration not stated), for which the TGI in test [1], in [2], in [3], in test [4], in [5] and in test [6] was > 100 µM in each case. Moreover, the TGI in test [7], in test [8], in test [9] and in test [10] was > 100 µM each time.

As to `O=C(/C=C/c1ccc(OCC(=O)N2CCN(c3ccccc3)CC2)cc1)c1ccc(Cl)cc1`, the TGI was > 100 µM in [1]; > 100 µM in test [2]; > 100 µM in test [3]; 47.8 µM in [4]; > 100 µM in [5]; > 100 µM in [6]. The concentration for total growth inhibition (TGI) is 54.7 µM in test [7], 73.8 µM in [8], 39.2 µM in test [9] and > 100 µM in test [10].

With `Cc1cccc(C(C)(C)C)c1NC(=O)C(=O)C(C(=O)/C=C\c1ccccc1)C1OC(=O)c2ccccc21` (configuration not stated), the TGI in test [1], in [2], in test [3], in test [4], in test [5] and in [6] was > 100 µM each time. In addition, the TGI in test [7], in test [8], in [9] and in test [10] was > 100 µM each time.

On to `O=C(O)CNc1c2ccccc2nc2ccccc12`, for which the TGI in [1], in [2], in test [3], in [4], in [5] and in test [6] was > 100 µM each time. Also, the TGI in test [7], in [8], in test [9] and in test [10] was > 100 µM throughout.

With `COc1ccc(/C=C/C(=O)c2cc3c(N)c(C(=O)Nc4ccccc4Cl)sc3nc2C)cc1`, the GI50 is 7.51 µM in test [1]; 17.2 µM in [2]; 1.74 µM in test [3]; 0.689 µM in test [4]; 8.11 µM in test [5]; 2.04 µM in test [6]. Also, the GI50 in test [7] was 3 µM; in test [8], 3.58 µM; in [9], 1.12 µM; in test [10], 3.77 µM. Besides, the TGI in test [1] is > 50 µM; in test [2] it was > 50 µM; in test [3], > 50 µM; in [4], 4.18 µM; in test [5], > 50 µM; in [6], 11 µM. Further, the TGI in test [7] is > 50 µM; in [8] it was 19 µM; in test [9], 4.32 µM; in test [10], > 50 µM.

For `OCc1cn(Cc2cccc(Cl)c2)c2ccccc12`, the TGI in [1] was found to be 1.87 µM; in test [2] it was 20.3 µM; in [3] it was 21.1 µM; in test [4], 17.4 µM; in [5], 25.8 µM; in [6], 66.9 µM. Further, the TGI in test [7] was 14.5 µM; in [8], 47.4 µM; in test [9] it was 29 µM; in test [10], 44.1 µM. In addition, the GI50 in test [2] is 0.432 µM; in test [3], 5.38 µM; in test [4], 1.55 µM; in test [5] it was 6.71 µM; in [6], 10.9 µM; in test [7], 0.145 µM. The GI50 in test [8] was 4.42 µM; in test [9], 7.7 µM; in [10] it was 12.3 µM.
